Assay results taken from patent US4570005A, “Process for the preparation of 2-arylpropyl ether or thioether derivatives” (priority 1980, dated 1986).
Read-outs that look alike come from different tables or passages of the source.

Assays:
green peach aphid = assay: Test 5: Effect on Green Peach Aphid; format: in vivo; settings: Myzus persicae; 100 ppm; mortality class; 24 hours; read-out: Insecticidal Activity
Experimental: (§1) To a mixture of 20 parts of the compound of the present invention and 20 parts of Sorpol SM-200 (registered tradename for the product supplied by Toho Chemical Industrial Co., Ltd.) was added 60 parts of xylol, and the mixture was suffciently blended. The obtained emulsifiable concentrate was diluted at a predetermined concentration with distilled water, and the obtained dilution was used.
Seedlings (having 3 to 4 leaves) of an eggplant grown on a pot were inoculated with green peach aphids and the insects were allowed to grow. The number of the insects was counted. A chemical dilution having a concentration of 100 ppm, prepared in the same manner as described in Test 1, was applied with a spray gun at a rate of 10 ml per pot. Then, the pot was placed in a glass green house. After 24 hours, the number of living insects was counted and the mortality was calculated.
The test was made on three pots, and the average value was calculated. In Table 6, mark "A" indicates a mortality higher than 95%, mark "B" indicates a mortality of 80 to 95%, mark "C" indicates a mortality of 50 to 80%, and mark "D" indicates a mortality lower than 50%.

[1] = system: sensitive green rice leafhopper (collected at Chigasaki); assay: whole plant or invertebrate; format: in vivo; settings: Nephotettix cincticeps, sensitive female adults, 24 hours, read-out: Mortality (%), Green Rice Leafhopper Collected at Chigasaki
Summary of the method: (§2)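 Ten adult females per pot, either resistant (Nakagawara) or sensitive (Chigasaki), were caged on air-dried rice seedlings (2–3 leaves) sprayed at 3 ml/pot with 100 or 20 ppm of an emulsifiable concentrate dilution. Dead and living insects were counted after 24 hours; mortality is the mean of three pots.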

tobacco cutworm [2] = assay: Test 1: Effect on Tobacco Cutworm (leaf immersion), mortality after 24 hours; format: in vivo; settings: second-instar larvae, 25° C
Summary of the method: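 Second-instar tobacco cutworm larvae were kept at 25 °C on air-dried sweet-potato leaves that had been immersed for 10 s in test dilutions of 100 or 20 ppm from an emulsifiable concentrate. Mortality was scored at 24 h as the mean of three cups.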

diamond back moth = assay: Test 4: Effect on Diamond Back Moth; format: in vivo; settings: Plutella
Summary of the method: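 Compound formulated as an emulsifiable concentrate, diluted in water to 100 or 20 ppm and sprayed at 3 ml per cup onto cabbage leaves holding 10 third-instar larvae. Mortality counted after 24 hours; mean of three cups.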

[3] = Test 9: Toxicity Test (acute oral toxicity, mice); settings: mouse, in vivo, po
Experimental: A predetermined amount of a solution or suspension of a test compound in corn oil was orally administered to male mice having a body weight of 19 to 23 g (0.2 ml per 10 g of the body weight). After 7 days, the number of killed mice was counted and the influences on the mice were examined.

[4] = system: resistant green rice leafhopper (collected at Nakagawara); assay: Test 3: Effect on Resistant Green Rice Leafhopper (collected at Nakagawara); format: in vivo, Nephotettix cincticeps Uhler (Green rice leafhopper); settings: Nephotettix cincticeps, 24 h, read-out: Mortality (%), Green Rice Leafhopper Collected at Nakagawara
Summary of the method: as §2

German cockroach = assay: Test 7: Effect on German Cockroach; format: in vivo; settings: Blattella germanica
Experimental: as §1
The bottom face of a high Petri dish having a diameter of 9 cm and a height of 9 cm was treated with 50 or 10 mg/m^2 of a test compound and the dish was air-dried. In order to prevent the adults from escaping from the dish, the inner wall of the dish was treated with butter. Then, 10 male adults of German cockroach were set free in each dish, and the dish was placed in a thermostat chamber maintained at 25° C. After 24 hours, the number of agonized and killed adults was counted. The test was made on two dishes and the average value was calculated.

tobacco cutworm [5] = assay: Test 2: Tobacco Cutworm Larva Dipping Test, mortality after 24 hours; format: in vivo
Experimental: as §1
A dilution having a chemical concentration of 100 or 20 ppm was prepared in the same manner as described in Test 1.
Second-instar and fifth-instar larvae of tobacco cutworm were dipped in the dilution for 5 seconds, and the excessive dilution was removed by a filter paper. Then, the larvae were set free in a plastic cup and an artificial diet was supplied thereto. The cup was allowed to stand still in a thermostat chamber maintained at 25° C. After 24 hours, the numbers of the killed and living larvae were counted and the mortality was calculated. The test was made on three cups and the result was expressed by an average value.

[6] = 20 ppm, third-instar larvae, 24 hours, read-out: Mortality (%)
[7] = 100 ppm, third-instar larvae, 24 hours, read-out: Mortality (%)
[8] = 10 mg/m^2, male adults, agonized and killed after 24 hours, read-out: Mortality (%)
[9] = 50 mg/m^2, male adults, agonized and killed after 24 hours, read-out: Mortality (%)
[10] = 24 h, read-out: Motality (%), Fifth-Instar Larvae
[11] = 24 h, read-out: Motality (%), Second-Instar Larvae

| Compound | mortality at 100 ppm (green peach aphid) | mortality at 20 ppm [1] | mortality at 100 ppm [1] | mortality at 20 ppm (tobacco cutworm [2]) | mortality at 100 ppm (tobacco cutworm [2]) | mortality at 20 ppm (diamond back moth; [6]) | mortality at 100 ppm (diamond back moth; [7]) | LD50 at 168 h [3] | mortality at 20 ppm [4] | mortality at 100 ppm [4] | mortality at 10 mg/m2 (German cockroach; [8]) | mortality at 50 mg/m2 (German cockroach; [9]) | further results |
| --- | --- | --- | --- | --- | --- | --- | --- | --- | --- | --- | --- | --- | --- |
| CCOc1ccc(C(C)(C)COCc2cccc(Oc3ccccc3)c2)cc1Cl [Compound 78, 3-Phenoxybenzyl 2-(3-chloro-4-ethoxyphenyl)-2-methylpropyl ether] | > 95% | 100% | 100% | 100% | 100% | 100% | 100% | > 500 mg/kg | 100% | 100% |  |  |  |
| CC(C)(CSCc1cccc(Oc2ccc(F)cc2)c1)c1ccc(Cl)cc1 [Compound 9] | > 95% | 70% | 100% | 90% | 100% | 95% | 100% | > 500 mg/kg | 90% | 100% | 100% | 100% |  |
| CCOc1ccc(C(C)(C)COCc2cccc(Oc3ccccc3)c2)cc1OCC [Compound 93, 3-Phenoxybenzyl 2-(3,4-diethoxyphenyl)-2-methylpropyl ether] | > 95% | 75% | 100% | 100% | 100% |  |  | > 500 mg/kg | 100% | 100% | 100% | 100% |  |
| COP(=O)(OC)OC=C(Cl)Cl [(g), O,O-dimethyl-O-(2,2-dichlorovinyl)phosphate, reference compound] | < 50% |  |  |  |  |  |  |  |  |  |  |  | mortality at 20 ppm (tobacco cutworm [5]; [10]): 10%; mortality at 100 ppm (tobacco cutworm [5]; [10]): 30%; mortality at 20 ppm (tobacco cutworm [5]; [11]): 20%; mortality at 100 ppm (tobacco cutworm [5]; [11]): 50%; mortality at 10 mg/m2 (German cockroach; 24 h): 40%; mortality at 50 mg/m2 (German cockroach; 24 h): 100%; mortality at 20 ppm (diamond back moth; 24 h): 0%; mortality at 100 ppm (diamond back moth; 24 h): 60% |
| Cc1ccc(C(C)(C)COCc2cccc(Oc3ccc(F)cc3)c2)cc1 [Compound 3, 3-(4-Fluorophenoxy)benzyl 2-(4-methylphenyl)-2-methylpropyl ether] | > 95% | 100% | 100% | 83% | 100% |  |  | > 500 mg/kg | 100% | 100% |  |  | mortality at 20 ppm (tobacco cutworm [5]; 20 ppm, fifth-instar larvae, 24 hours, read-out: Motality (%), Fifth-Instar Larvae): 60%; mortality at 20 ppm (tobacco cutworm [5]; 20 ppm, second-instar larvae, 24 hours, read-out: Motality (%), Second-Instar Larvae): 70%; mortality at 100 ppm (tobacco cutworm [5]; 100 ppm, fifth-instar larvae, 24 hours, read-out: Motality (%), Fifth-Instar Larvae): 70%; mortality at 100 ppm (tobacco cutworm [5]; 100 ppm, second-instar larvae, 24 hours, read-out: Motality (%), Second-Instar Larvae): 90% |
| CC(C)(COCc1cccc(Oc2ccccc2)c1)c1cccc(C(F)(F)F)c1 [Compound 39, 3-Phenoxybenzyl 2-(3-trifluoromethylphenyl)-2-methylpropyl ether] | > 95% | 100% | 100% | 90% | 100% |  |  | > 500 mg/kg | 100% | 100% | 90% | 100% |  |
| CCOc1ccc(C(C)(CC)COCc2cccc(Oc3ccccc3)c2)cc1 (centres unmarked) [Compound 103, 3-Phenoxybenzyl 2-(4-ethoxyphenyl)-2-ethylpropyl ether] | > 95% | 100% | 100% | 100% | 100% |  |  | > 500 mg/kg | 100% | 100% |  |  |  |
| CC(C)(COCc1cccc(Oc2ccccc2F)c1)c1ccc(Cl)cc1 [Compound 14] | > 95% | 100% | 100% | 100% | 100% | 100% | 100% | > 500 mg/kg | 100% | 100% | 100% | 100% |  |
